In PMC6747015, “Structure–function study of a novel inhibitor of the casein kinase 1 family in Arabidopsis thaliana” (Plant Direct, 2019):

Legend:
CKL3 (AT4G28880) = target: T1, CKL3 (AT4G28880) (Arabidopsis thaliana, UniProt Q93Z18); assay: AMI‐329 bead binding with AMI‐331 competitor, CKL3
T1 construct: from tissue; host or cells: Arabidopsis seedlings, two weeks old
Experimental: (§1) Screening for proteins bound to AMI‐329 beads was done by a method similar to what has previously been described (Uehara et al., 2019). Briefly, two‐week‐old seedlings grown under LD conditions were harvested at time points ZT2, ZT6, ZT9, and ZT17, and stored at −80°C. Proteins from the frozen plant samples were incubated with 0, 5, or 50 µM of AMI‐331 at 4°C for 30 min with rotary mixing. Two technical replicates were used for each experiment. PBS‐washed AMI‐329 beads were added to the protein samples and gently rotated at 4°C for 1 hr. AMI‐329 bead resins were washed with bead buffer (Uehara et al., 2019) six times. The washed resins were suspended in SDS sample buffer and boiled for 8 min. Protein samples were in‐gel‐digested as previously described (Uehara et al., 2019). Peptides were analyzed with a Q Exactive hybrid quadrupole‐orbitrap mass spectrometer (Thermo Fisher Scientific), as described previously (Uehara et al., 2019). […]
(§2) However, another possible mechanism for the strong AMI‐331 biological activity in vivo is that it targets proteins other than the CK1 family for period lengthening. […] It is noteworthy that kinase AT4G08800 is very similar to the CKL family, but the ATP‐binding pocket of mammalian CK1 as determined by its crystal structure (Shinohara et al., 2017) was absent from AT4G08800, as shown in an Araport 11 model (https://www.araport.org). […]

CKL5 (AT2G19470) = target: T2, CKL5 (AT2G19470) (Arabidopsis thaliana, UniProt Q9ZUP4); assay: AMI‐329 bead binding with AMI‐331 competitor, CKL5
T2 construct: from tissue; host or cells: Arabidopsis seedlings, two weeks old
T2 sequence (Q9ZUP4 whole entry): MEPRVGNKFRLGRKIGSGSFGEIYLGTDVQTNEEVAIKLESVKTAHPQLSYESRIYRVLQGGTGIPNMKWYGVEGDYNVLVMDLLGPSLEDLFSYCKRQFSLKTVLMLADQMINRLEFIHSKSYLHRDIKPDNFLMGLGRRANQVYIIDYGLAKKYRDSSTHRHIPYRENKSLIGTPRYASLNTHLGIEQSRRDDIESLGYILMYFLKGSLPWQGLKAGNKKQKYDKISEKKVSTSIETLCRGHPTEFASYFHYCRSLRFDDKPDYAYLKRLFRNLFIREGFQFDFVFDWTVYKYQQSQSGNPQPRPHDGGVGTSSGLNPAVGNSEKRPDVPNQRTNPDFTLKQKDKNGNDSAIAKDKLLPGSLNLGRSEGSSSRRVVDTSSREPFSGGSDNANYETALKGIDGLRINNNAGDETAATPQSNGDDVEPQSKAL
Experimental: as §1, §2

RNA‐binding AT3G15010 = target: T3, RNA‐binding AT3G15010 (Arabidopsis thaliana, UniProt Q9LKA4); assay: AMI‐329 bead binding with AMI‐331 competitor, RNA‐binding protein AT3G15010
T3 construct: Proteins from the frozen plant samples were incubated with 0, 5, or 50 µM of AMI‐331; from tissue; host or cells: two-week-old Arabidopsis seedlings (protein lysate)
T3 sequence (Q9LKA4 whole entry): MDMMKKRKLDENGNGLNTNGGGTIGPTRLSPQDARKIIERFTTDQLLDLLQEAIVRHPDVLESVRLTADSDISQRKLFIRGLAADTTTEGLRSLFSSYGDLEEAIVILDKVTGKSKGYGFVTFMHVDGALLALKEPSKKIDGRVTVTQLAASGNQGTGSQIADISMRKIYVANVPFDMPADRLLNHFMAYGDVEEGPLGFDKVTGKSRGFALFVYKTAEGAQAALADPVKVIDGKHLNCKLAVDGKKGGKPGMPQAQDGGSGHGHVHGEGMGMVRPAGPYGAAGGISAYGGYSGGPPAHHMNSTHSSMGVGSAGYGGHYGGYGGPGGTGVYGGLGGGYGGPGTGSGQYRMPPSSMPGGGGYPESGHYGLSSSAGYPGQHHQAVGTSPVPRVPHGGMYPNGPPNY
Experimental: as §1, §2

Recombinant CKL4 kinase = target: T4, Recombinant CKL4 kinase (Arabidopsis thaliana, UniProt Q8LPI7); assay: In vitro phosphorylation assay of CKL4 (32P phosphorylation of casein); type: biochemical; details: recombinant CKL4, casein, 32P‐ATP, 37°C for 2 hr; read-out: IC50 for in vitro CKL4 kinase activity
T4 sequence (Q8LPI7 1-414): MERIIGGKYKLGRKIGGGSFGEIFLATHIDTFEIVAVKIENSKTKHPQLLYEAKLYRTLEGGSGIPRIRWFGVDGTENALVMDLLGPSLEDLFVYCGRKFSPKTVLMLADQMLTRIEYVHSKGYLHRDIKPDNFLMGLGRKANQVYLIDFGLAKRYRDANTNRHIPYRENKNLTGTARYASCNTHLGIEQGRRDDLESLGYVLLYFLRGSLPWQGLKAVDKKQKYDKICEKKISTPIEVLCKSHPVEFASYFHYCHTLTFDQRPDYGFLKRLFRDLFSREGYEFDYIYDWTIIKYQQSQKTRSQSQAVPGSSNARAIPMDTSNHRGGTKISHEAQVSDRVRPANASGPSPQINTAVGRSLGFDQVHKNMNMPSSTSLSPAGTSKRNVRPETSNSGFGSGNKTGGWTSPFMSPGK
Experimental: In vitro phosphorylation assays using recombinant CKL4 were performed as described previously (Uehara et al., 2019), with synthetic small molecules. IC261 and PF‐670462 were purchased (Sigma‐Aldrich catalog numbers I0658 and SML0795, respectively). PHA767491 was synthesized as previously described (Uehara et al., 2019). All chemical compounds were dissolved in dimethyl sulfoxide (DMSO) as 10 mM stock solutions. Stock solutions were diluted with DMSO to the working concentration and added to assays in kinase reaction buffer (Uehara et al., 2019).
The activities of three known CK1 inhibitors were measured in vitro by a previously reported method (Uehara et al., 2019). Recombinant CKL4 kinase, casein, ^32P‐ATP, and different concentrations of the inhibitors were combined in a reaction buffer and kept at 37°C for 2 hr. Resulting samples were separated on a polyacrylamide gel by electrophoresis, and ^32P phosphorylation of casein was measured as an indicator of CKL4 kinase activity. IC50 (half‐maximal inhibitory concentration) was determined by calculating the results from at least two independent experiments. […] The stronger in vitro CK1 inhibitory activity shown by PF‐670462 relative to PHA767491 was consistent with previous reports (Uehara et al., 2019).

YAK1 (AT5G35980) = target: T5, YAK1 (AT5G35980) (Arabidopsis thaliana, UniProt Q8RWH3); assay: AMI‐329 bead binding with AMI‐331 competitor, YAK1
T5 construct: Proteins from the frozen plant samples were incubated with 0, 5, or 50 µM of AMI‐331; from tissue; host or cells: two-week-old Arabidopsis seedlings (protein lysate)
T5 sequence (Q8RWH3 whole entry): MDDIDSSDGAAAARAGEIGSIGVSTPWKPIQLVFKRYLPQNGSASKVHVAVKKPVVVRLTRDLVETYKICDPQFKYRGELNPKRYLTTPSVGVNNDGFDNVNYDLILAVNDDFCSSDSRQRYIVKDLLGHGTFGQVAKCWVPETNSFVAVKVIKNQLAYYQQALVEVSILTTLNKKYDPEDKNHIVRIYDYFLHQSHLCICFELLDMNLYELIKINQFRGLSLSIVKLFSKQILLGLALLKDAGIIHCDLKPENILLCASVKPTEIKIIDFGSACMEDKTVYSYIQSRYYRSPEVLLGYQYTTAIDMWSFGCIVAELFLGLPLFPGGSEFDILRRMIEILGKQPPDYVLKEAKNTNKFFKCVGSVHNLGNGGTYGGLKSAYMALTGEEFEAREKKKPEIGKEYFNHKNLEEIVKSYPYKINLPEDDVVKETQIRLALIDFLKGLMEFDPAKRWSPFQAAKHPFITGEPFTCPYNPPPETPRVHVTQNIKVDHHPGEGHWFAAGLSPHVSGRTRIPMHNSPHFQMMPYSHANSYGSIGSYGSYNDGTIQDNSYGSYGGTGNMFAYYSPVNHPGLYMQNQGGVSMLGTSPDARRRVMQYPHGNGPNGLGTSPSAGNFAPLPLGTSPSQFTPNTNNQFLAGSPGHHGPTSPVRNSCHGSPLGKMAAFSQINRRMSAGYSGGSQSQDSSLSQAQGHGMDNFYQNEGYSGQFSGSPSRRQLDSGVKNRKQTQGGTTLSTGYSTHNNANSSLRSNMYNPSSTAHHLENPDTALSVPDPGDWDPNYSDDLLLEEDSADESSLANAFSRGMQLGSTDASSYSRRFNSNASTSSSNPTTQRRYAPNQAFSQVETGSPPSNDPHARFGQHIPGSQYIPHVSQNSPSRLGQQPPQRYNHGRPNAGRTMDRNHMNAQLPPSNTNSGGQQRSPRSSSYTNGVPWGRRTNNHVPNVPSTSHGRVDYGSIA
Experimental: as §1, §2

T1 sequence (Q93Z18 whole entry): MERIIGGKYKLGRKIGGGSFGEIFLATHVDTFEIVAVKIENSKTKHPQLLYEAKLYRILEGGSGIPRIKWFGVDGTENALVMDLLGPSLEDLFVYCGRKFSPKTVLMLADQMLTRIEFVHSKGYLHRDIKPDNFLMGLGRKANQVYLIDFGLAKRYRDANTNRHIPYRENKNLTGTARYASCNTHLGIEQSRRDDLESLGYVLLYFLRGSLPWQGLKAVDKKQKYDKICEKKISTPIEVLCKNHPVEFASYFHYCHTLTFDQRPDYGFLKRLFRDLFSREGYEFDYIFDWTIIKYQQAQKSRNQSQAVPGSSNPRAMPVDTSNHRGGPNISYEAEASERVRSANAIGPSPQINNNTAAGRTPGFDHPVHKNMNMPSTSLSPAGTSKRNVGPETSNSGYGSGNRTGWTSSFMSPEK

C#CCn1c2c(c(Br)c1-c1ccncc1)C(=O)NCC2.Cl [AMI‐331]
Spectra (PSMs) AMI‐329 beads bound (CKL3 (AT4G28880); competitor AMI‐331 5 µM): 1 PSMs | Spectra (PSMs) AMI‐329 beads bound (CKL3 (AT4G28880); competitor AMI‐331 50 µM): 0 PSMs | Spectra (PSMs) AMI‐329 beads bound (CKL5 (AT2G19470); competitor AMI‐331 5 µM): 1 PSMs | Spectra (PSMs) AMI‐329 beads bound (CKL5 (AT2G19470); competitor AMI‐331 50 µM): 0 PSMs | Spectra (PSMs) AMI‐329 beads bound (RNA‐binding AT3G15010; competitor AMI‐331 5 µM): 0 PSMs | Spectra (PSMs) AMI‐329 beads bound (RNA‐binding AT3G15010; competitor AMI‐331 50 µM): 0 PSMs | IC50 (Recombinant CKL4 kinase): 700 nM | Spectra (PSMs) AMI‐329 beads bound (YAK1 (AT5G35980); competitor AMI‐331 5 µM): 0 PSMs | Spectra (PSMs) AMI‐329 beads bound (YAK1 (AT5G35980); competitor AMI‐331 50 µM): 0 PSMs
